# Measurements reported in patent EP2792360A1, “(1aR,12bS)-8-cyclohexyl-11-fluoro-N-((1-methylcyclopropyl)sulfonyl)-1a-((3-methyl-3,8-diazabicyclo[3.2.1]oct-8-yl)carbonyl)-1,1a,2,2b-tetrahydrocyclopropa[d]indolo[2,1-a][2]benzazepine-5-carboxamide for use in treating HCV” (IP Gesellschaft für Management mbH, priority 2013, dated 2014).
# What was measured:
# [1] = Relative stability (non-competitive and competitive interconversion) experiments of crystal forms of Compound 1
# Procedure: For the non-competitive experiments, only a single starting crystal form was used to study the potential conversion to another more stabb form. […] The slurry was cooled to 25-30 °C, filtered, suction dried for 1 hour and dried in a vacuum oven at 70 °C and 8 kPa absolute pressure for 12 hours. […] The slurry was cooled to 25-30 °C, filtered, suction dried for 1 hour and dried in a vacuum oven at 70 °C and 8 kPa absolute pressure for 12 hours. […] The slurry was cooled to 25-30 °C, filtered, suction dried for 1 hour and dried in a vacuum oven at 70 °C and 8 kPa absolute pressure for 12 hours.
# [2] = Stability experiment for polymorph Form A of Compound 1 (stability chamber); assay type: physicochemical; settings: 40 °C for 30 days
# Procedure: CHARACTERIZATION EXAMPLE 13 - Stability Experiment for Polymorph Form A ({drug1a}) of Compound 1 (drug 1): The physical stability of Form A ({drug1a}) of Compound 1 (drug 1) was determined as follows. Compound 1 (drug 1) prepared according to Preparation Example 3 was analyzed by pXRD, DSC, HPLC and 1H-NMR and found to be of pure crystal Form A ({drug1a}) of 99.9 % purity (by HPLC peak area at 230 nm detection wavelength). An aliquot of the sample (3.0 g) was placed in a primary polyethylene bag, the primary bag was flushed with nitrogen gas and sealed. The primary polyethylene bag was then placed in a secondary polyethylene bag which was again flushed with nitrogen gas and a silica gel sachet was placed between the inner and the outer bag. The double bagged material was then placed in a triple laminated aluminum pouch and placed in a stability chamber at 40 °C for 30 days. Analysis by HPLC and 1H-NMR of the resulting material indicated pure Form A ({drug1a}) of Compound 1 (drug 1) of 99.9 % purity (by HPLC peak area at 230 nm). […] The triclinic cell parameters were determined to be: a = 14.835(7) A, b = 15.216(8) A, c = 18.790(10) A, alpha = 90.306(7) °, beta = 93.619(7) °, gamma = 1 13.045(7) °, volume = 3893(3) A3. The space group was determined to be P-1. The molecular weight was 468.23 giving a calculated density of 1.598g/cm3, and µ(Mo) = 0.50mm"1 for Z = 8. […]
# [3] = Hygroscopicity of solid forms of compound of formula (IV) (Ph. Eur. classification); assay type: physicochemical
# Procedure: For the thermogravimetric analyses, approx. 5 - 10 mg of sample were placed in aluminum pans, accurately weighed and hermetically closed with perforation lids. […] The samples were then heated under a flow of nitrogen of about 50 mL/min using a heating rate of 5 K/min. The term "micronization" denotes a process whereby the particle size of a solid material is diminished to a d50 value of less than IOµm by the aid of a suitable method, such as milling, bashing or grinding. […] The term "anti-solvent crystallization" denotes a process wherein supers aturation and as a result thereof crystallisation is achieved by addition of an antisolvent to the product solution. The term "ambient conditions" denotes conditions as experienced in a standard laboratory, e.g. atmospheric pressure, air, ambient temperature between 18 °C and 28 °C, humidity between 30 %rH and 80 %rH. The term "hygroscopicity" describes the ability of a solid material to adsorb moisture. The hygroscopicity of a given API is characterized [European Pharmacopoeia - 6th Edition (2008), Chapter 5.11) by the increase in mass when the relative humidity is raised from 0 %rH to 90 %rH: o non-hygroscopic: weight increase Am < 0.2%; o slightly hygroscopic: weight increase 0.2% < Am < 2.0%; o hygroscopic: weight increase 2.0% < Am < 15.0%; o very hygroscopic: weight increase Am > 15.0%; o deliquescent: sufficient water is adsorbed to form a liquid. The IUPAC lamda convention (W.H. Powell, Pure & Appl. Chem. […] The bonding number "n" of a heteroatom is the sum of the total number of valence bonds to adjacent atoms, if any, and the number of attached hydrogen atoms. The bonding number of a heteroatom is standard when it has the value given in the following table: n=4: C, Si, Ge, Sn, Pb; n=3 B, N, P, As, Sb, Bi, n=2: O, S, Se, Te, Po; n=l; F, CI, Br, I, At. A nonstandard bonding number of a (neutral) heteroatom is indicated by the symbol "λη", where "n" is the bonding number. […]
# [4] = Solid form stability of forms of compound of formula (IV) (Temperature / Humidity Controlled XRPD, storage, suspension); assay type: physicochemical
# [5] = in vitro dissolution of micronized powders in SGF and FeSSIF (miniaturized, non-sink); assay type: physicochemical
# Procedure: Example 28: in vitro Dissolution Results: The in vitro dissolution studies performed in this work were conducted in a miniaturized system with 100 mL dissolution medium per experiment. […] Simulated gastric fluid (SGF) was prepared with 2 g/L NaCl and 1 g/L Triton® X-100 in 0.1 N HCl. The resulting measured pH of SGF was 1.2. Simulated fed state intestinal fluid (FeSSIF) was prepared as previously reported in […]. et al. (Pharm. Res. […] Oral absorption of a drug compound from a solid dosage form is dependent on dissolution rate and solubility. […] Figure 21 of WO/2013/057124presents the dissolution profiles measured in simulated gastric fluid (SGF) and Figure 22 of WO/2013/057124shows the dissolution profiles in simulated fed state intestinal fluid (FeSSIF). […] Changes of pH values in the dissolution test samples taken at different time points were not observed. The ranking of the different solid forms with respect to dissolution speed and maximum drug concentration achieved was identical in both media. The differences in the dissolution profiles in SGF and FeSSIF can be explained by the different composition of the two media since the dissolution generally depends on a variety of factors such as pH, surfactant, buffer capacity, ionic strength, etc. […]
# [6] = physchem
# Procedure: Anal. Chem. Instrum. […] Drug Delivery Rev. […] The binding constant (K) of the gamma-CD inclusion complex ({drug4g}) was calculated from the initial straight line portion of the phase solubility diagram by linear regression, according to the following equation [T. Higuchi et al., Adv. Anal. Chem. Instrum.
structure (smiles),measurement,setting,value
"COc1ccc(Cl)c(S(=O)(=O)NC(=O)c2cn3cc(C(F)(F)F)cc(Cl)c3n2)c1 [Form A ({drug1a}), 8-chloro-N-[(2-chloro-5-methoxyphenyl)sulfonyl]-6-(trifluoromethyl)-imidazo[1,2-a]pyridine-2-carboxamide]",crystal form of the resulting material,"[1]; non-competitive, refluxed in deionized water at about 95 °C for 3 hours, pXRD, DSC, TGA, 1H-NMR",remained unchanged
same,relative thermodynamic stability of polymorph form,[1]; water heated to 95 °C or methanol heated to 55 °C,most thermodynamically stable polymorph form
same,crystal form by pXRD and DSC after storage,[2],pure polymorphForm A
same,purity (by HPLC peak area at 230 nm) after storage,"[2]; double polyethylene bags under nitrogen in aluminum pouch, 99.9 % before storage",99.9%
"Cc1onc(-c2ccc(F)cc2)c1COc1ccc(C(=O)N2CCS(=O)(=O)CC2)cn1 [Form C ({drug4c}), (1,1-dioxo-1lambda6-thiomorpholin-4-yl)-{6-[3-(4-fluoro-phenyl)-5-methyl-isoxazol-4-ylmethoxy]-pyridin-3-yl]-methanone]",hygroscopicity relative to Form A,[3],less hygroscopic than Form A
same,behaviour in the presence of water in suspended state,[4],transforms into Form B
same,thermodynamic stability of the solid form,[4],most stable polymorph overall
same,phase change upon storage at 100 rH at ambient temperature,"[4]; Form C: prolonged period, e.g. 30 days",does not induce this phase change
same,solid form changes at elevated temperature,[4]; Temperature Controlled XRPD,do not show solid form changes
same,solubility in simulated gastric fluid (SGF),[5],considerably improved as compared to Form B
"Cc1onc(-c2ccc(F)cc2)c1COc1ccc(C(=O)N2CCS(=O)(=O)CC2)cn1 [gamma-CD inclusion complex ({drug4g}), (1,1-dioxo-1lambda6-thiomorpholin-4-yl)-{6-[3-(4-fluoro-phenyl)-5-methyl-isoxazol-4-ylmethoxy]-pyridin-3-yl]-methanone]",binding constant (K),[6],510.4 M⁻¹
same,initial concentration achieved in dissolution,"[5]; SGF and FeSSIF, room temperature, dropped in the first 60 min to a level comparable to polymorph C",much higher initial concentration
